Source: patent US20070027118A1 (priority 2005, published 2007)
Where two headings read alike, the source gives them in different places.

How the values were obtained:
11β-hsd-1 enzyme [1] = target: T1, 11β-hsd-1 enzyme (Homo sapiens, UniProt P28845); assay: biochemical; settings: for inhibition at 0.1 µM: read-out: % Inh @ 0.1 μM; for inhibition: read-out: % Inh @ 0.1 mM
Description: Percentage of inhibition was determined in a 100 mM Triethanolamine buffer, pH 8.0, 200 mM NaCl, 0.02% n-dodecyl β-D-maltoside and 5 mM β-ME. A typical reaction was carried on a Corning® u-bottom 96-well plate and is described as follows: 11β-hsd-1 enzyme (5 nM, final concentration) was pre-incubated in the presence of the inhibitor and NADPH (500 μM, final concentration) for at least 30 minutes
in the assay buffer. When pre-incubation was completed, the reaction was initiated by adding the regenerating system (2 mM Glucose-6-Phosphate, 1U/mL Glucose-6-Phosphate dehydrogenase, and 6 mM MgCl2, all the concentration reported are final in the assay buffer), and 3H-cortisone (200 nM, final concentration). After 60 minutes, 60 μL of the assay mixture was transferred to a second 96-well plate and mixed with an equal volume of dimethylsulfoxide to stop the reaction. A 15 μL aliquot from the reaction mixture was loaded into a C-18 column (Polaris C18-A, 50×4.6 mm, 5 μ, 180 Angstrom from Varian) connected to an automated High-throughput Liquid Chromatography instrument developed by Cohesive Technologies Inc of Franklin, Mass., with a […] model 3 Radio-HPLC detector from IN/US of Tampa, Fla. The substrate and product peaks were separated by using an isocratic mixture of 43:57 methanol to water (v/v) at a flow rate of 1.0 mL/min.
Percent Inhibition was calculated based on the following equation: (1-(3H-Cortisol peak area in the […] of inhibitor)×100).

11β-hsd-1 enzyme [2] = target: T1, 11β-hsd-1 enzyme; assay: biochemical
Description: The 11β-hsd-1 assay was performed in a 100 mM Triethanolamine buffer pH 8.0, containing 200 mM NaCl, 0.02% n-dodecyl β-D-maltoside, 5% glycerol, 5 mM β-mercaptoethanol. A typical reaction for the determination of Kiapp values was carried at R.T. in a Corning® u-bottom 96-well plate and is described as follows: 11β-hsd-1 enzyme (5 nM, final concentration) was pre-incubated in the presence of the inhibitor and NADPH (500 μM, final concentration) for at least 30 minutes in the assay buffer. When pre-incubation was completed, the reaction was initiated by adding the regenerating system (2 mM Glucose-6-Phosphate, 1U/mL Glucose-6-Phosphate dehydrogenase, and 6 mM MgCl2, all the concentration reported are final in the assay buffer), and 3H-cortisone (200 nM, final concentration). After 60 minutes, 60 μL of the assay mixture was transferred to a second 96-well plate and mixed with an equal volume of dimethylsulfoxide to stop the reaction. A 15 μL aliquot from the reaction mixture was loaded into a C-18 column (Polaris C18-A, 50×4.6 mm, 5 μ, 180 Angstrom from Varian) connected to an automated High-throughput Liquid Chromatography instrument developed by Cohesive Technologies Inc, of Franklin, Mass. USA, with a β-RAM model 3 Radio-HPLC detector from IN/US, of Tampa, Fla. USA. The substrate and product peaks were separated by using an isocratic mixture of 43:57 methanol to water (v/v) at a flow rate of 1.0 mL/min.
The initial reaction velocities were measured by stopping the reaction at 60 min and by measuring the area of product formation in the absence and the presence of various concentrations of inhibitors. The Kiapp values were determined using the equation for tight-binding inhibitor developed by Morrison, J. F. (Morrison J. F. Biochim BiophysActa. 1969; 185: 269-86).
The radiolabeled [1,2-3H]-cortisone is commercially available from American Radiolabeled Chemicals Inc of St. Louis, Mo. USA. NADPH, Glucose-6-Phosphate, and Glucose-6-Phosphate dehydrogenase were purchased from Sigma®.
(Morrison J. F. Biochim Biophys Acta. 1969; 185: 269-86).

T1 sequence (P28845 whole entry, species assumed): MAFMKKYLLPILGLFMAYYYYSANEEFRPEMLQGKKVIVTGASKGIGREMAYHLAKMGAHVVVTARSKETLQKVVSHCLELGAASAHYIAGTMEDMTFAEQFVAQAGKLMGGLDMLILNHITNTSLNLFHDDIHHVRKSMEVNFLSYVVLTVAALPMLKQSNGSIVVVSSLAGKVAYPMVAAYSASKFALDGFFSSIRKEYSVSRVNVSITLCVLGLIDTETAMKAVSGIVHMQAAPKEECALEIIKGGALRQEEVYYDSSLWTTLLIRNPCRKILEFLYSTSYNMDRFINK

Row | inhibition at 0.1 µM (11β-hsd-1 enzyme [1]) | Ki (11β-hsd-1 enzyme [2]) | inhibition at 0.1 µM (11β-hsd-1 enzyme [1]; Table 1, inhibitor 0.1 μM) | inhibition (11β-hsd-1 enzyme [1]) | Structure (SMILES)
1 | 100% | 2.4 nM |  |  | O=S(=O)(Nc1cccc(CCO)n1)N1CCc2ccccc2CC1 [Example 16, N-[6-(2-hydroxyethyl)pyridin-2-yl]-1,2,4,5-tetrahydro-3H-3-benzazepine-3-sulfonamide]
2 |  | 13 nM | 78.2% |  | CCc1cccc(NS(=O)(=O)N2CCc3ccc(S(C)(=O)=O)cc3CC2)n1 [Example 18]
3 | 100% | 2.5 nM |  |  | Cc1cc(N)nc(NS(=O)(=O)N2CCN(c3ccc(C#N)cn3)CC2)c1 [Example 20, N-(6-amino-4-methylpyridin-2-yl)-4-(5-cyanopyridin-2-yl)piperazine-1-sulfonamide]
4 | 90% | 22 nM |  |  | Cc1cccc(NS(=O)(=O)N2CCCC(c3ccc(F)cc3)C2)n1 (stereo not drawn) [Example 22]
5 | 100% | 19.8 nM |  |  | Cc1cccc(NS(=O)(=O)N2CCN(c3ccc(C#N)cn3)[C@H](C)C2)n1 [Example 23, (3R)-4-(5-cyanopyridin-2-yl)-3-methyl-N-(6-methylpyridin-2-yl)piperazine-1-sulfonamide]
6 |  | 63.5 nM | 50% |  | Cc1cccc(NS(=O)(=O)N2CCC(F)(c3ccc(C#N)cc3)CC2)n1 [Example 25, 4-(4-cyanophenyl)-4-fluoro-N-(6-methylpyridin-2-yl)piper-idine-1-sulfonamide]
7 | 100% | 1.6 nM |  |  | Cc1cccc(NS(=O)(=O)N2CC=C(c3ccc(C#N)cc3)CC2)n1 [Example 26, 4-(4-cyanophenyl)-N-(6-methylpyridin-2-yl)-3,6-dihydro-pyridine-1(2H)-sulfonamide]
8 | 100% | 0.66 nM |  |  | Cc1cc(C)nc(NS(=O)(=O)N2CCN(c3ccc(C#N)cn3)[C@H](C)C2)c1 [Example 28]
9 |  | 13 nM | 95% |  | N#Cc1ccc(N2CCN(S(=O)(=O)Nc3cccc(CO)n3)CC2)nc1 [Example 29, 4-(5-cyanopyridin-2-yl)-N-[6-(hydroxymethyl)pyridin-2-yl]piperazine-1-sulfonamide]
10 | 100% | > 1 nM |  |  | C[C@@H]1CN(S(=O)(=O)Nc2cccc(CO)n2)CCN1c1ccc(C#N)cn1 [Example 30]
11 | 100% | 11 nM |  |  | Cc1cc(N)nc(NS(=O)(=O)N2CCN(c3ncc(F)cn3)CC2)c1 [Example 31, N-(6-amino-4-methylpyridin-2-yl)-4-(5-fluoropyrimidin-2-yl)piperazine-1-sulfonamide]
12 | 97% | 2.4 nM |  |  | CC(C)c1cccc(NS(=O)(=O)N2CCN(c3ccc(C#N)cn3)CC2)n1 [Example 32, 4-(5-cyanopyridin-2-yl)-N-(6-isopropylpyridin-2-yl)piper-azine-1-sulfonamide]
13 | 100% | 50 nM |  |  | Cc1cccc(NS(=O)(=O)N2CCC(c3ccc(C#N)cn3)CC2)n1 [Example 33, 4-(5-cyanopyridin-2-yl)-N-(6-methylpyridin-2-yl)piperidine-1-sulfonamide]
14 | 100% | 26 nM |  |  | CC(C)c1cccc(NS(=O)(=O)N2CCC(c3ccc(C#N)cn3)CC2)n1 [Example 34]
15 | 100% | 10 nM |  |  | O=S(=O)(Nc1ccc2ncccc2n1)N1CCN(c2ccc(C(F)(F)F)cn2)CC1 [Example 35, N-1,5-naphthyridin-2-yl-4-[5-(trifluoromethyl)pyridin-2-yl]piperazine-1-sulfonamide]
16 | 80% | 100 nM |  |  | Cc1cc(Cl)cnc1N1CCN(S(=O)(=O)Nc2ccc3ncccc3n2)CC1 [Example 37, 4-(5-chloro-3-methylpyridin-2-yl)-N-1,5-naphthyridin-2-ylpiperazine-1-sulfonamide]

Row | inhibition at 0.1 µM (11β-hsd-1 enzyme [1]) | Ki (11β-hsd-1 enzyme [2]) | inhibition at 0.1 µM (11β-hsd-1 enzyme [1]; Table 1, inhibitor 0.1 μM) | inhibition (11β-hsd-1 enzyme [1]) | Structure (SMILES)
17 | 100% | 31 nM |  |  | N#Cc1ccc(C2CCN(S(=O)(=O)Nc3ccc4ccccc4n3)CC2)nc1 [Example 38]
18 | 91% | 16 nM |  |  | N#Cc1ccc(C2CCN(S(=O)(=O)Nc3cccc(N)n3)CC2)nc1 [Example 39]
19 | 89% | 17 nM |  |  | CCc1cccc(NS(=O)(=O)N2CCCN(c3ccc(C#N)cn3)CC2)n1 [Example 42]
20 | 93% | 12 nM |  |  | CCc1cccc(NS(=O)(=O)N2CCCN(c3ccc(C(F)(F)F)cn3)CC2)n1 [Example 43]
21 | 72% | 34 nM |  |  | Cc1cccc(NS(=O)(=O)N2CCCN(c3ccc(C#N)cn3)CC2)n1 [Example 44]
22 | 73% | 53 nM |  |  | N#Cc1ccc(N2CCCN(S(=O)(=O)Nc3ccc4ccccc4n3)CC2)nc1 [Example 45]
23 |  | 56 nM | 85% |  | Cc1ccc(C)n1-c1cccc(NS(=O)(=O)N2CCC(c3ccc(F)cc3)CC2)n1 [Example 57, N-[6-(2,5-dimethyl-1H-pyrrol-1-yl)pyridin-2-yl]-4-(4-fluorophenyl)piperidine-1-sulfonamide]
24 | 96.6% | 5.4 nM |  |  | CCc1cccc(NS(=O)(=O)N2CCC(c3ccc(F)cc3)CC2)n1 [Example 68]
25 |  | 23 nM |  | 92.7% | CCc1cccc(NS(=O)(=O)N2CCCC(c3ccnc(N4CCOCC4)n3)C2)n1 (stereo not drawn) [Example 71, N-(6-ethylpyridin-2-yl)-3-(2-morpholin-4-ylpyrimidin-4-yl)pipendine-1-sulfonamide]
26 |  | 9.6 nM |  | 88.4% | CCc1cccc(NS(=O)(=O)N2CCC(c3ccc(C(=O)NC4CCCC4)cc3)CC2)n1 [Example 74, N-cyclopentyl-4-(1-{[(6-ethylpyrin-2-yl)amino]sulfonyl}pipendin-4-yl)benzamide]
27 |  | 5.6 nM |  | 93.8% | CCc1cccc(NS(=O)(=O)N2CCC(CCc3ccccn3)CC2)n1 [Example 80, N-(6-ethylpyridin-2-yl)-4-(2-pyridin-2-ylethyl)piperidine-1-sulfonamide]
28 |  | 230 nM |  | 86.8% | CCc1cccc(NS(=O)(=O)N2CCC(c3ccnc(N(C)C)n3)CC2)n1 [Example 81, 4-[2-(dimethylamino)pyrimi-din-4-yl]-N-(6-ethylpyridin-2-yl)piperidine-1-sulfonamide]
29 |  | 11 nM |  | 100% | CCc1cccc(NS(=O)(=O)N2CCC(CCc3ccnc(NCC4CC4)n3)CC2)n1 [Example 82, 4-(2-{2-[(cyclopropylmethyl)-amino]pyrimidin-4-yl}ethyl)-N-(6-ethylpyridin-2-yl)piperidine-1-sulfonamide]
30 |  | 110 nM |  | 71.2% | Cc1cccc(NS(=O)(=O)N2CCOC(COc3cc(F)cc(F)c3)C2)n1 (stereo not drawn) [Example 83, 2-[(35-difluorophenoxy)meth-yl]-N-(6-methylpyridin-2-yl)morpholine-4-sulfonamide]
31 |  | 8.2 nM |  | 100% | Cc1cccc(NS(=O)(=O)N2CCCC(c3ccccc3)CC2)n1 (stereo not drawn) [Example 84, N-(6-methylpyridin-2-yl)-4-phenylazepane-1-sulfonamide]
32 |  | 98 nM |  | 87.6% | Cc1cccc(NS(=O)(=O)N2CCCC(COCC3CC3)CC2)n1 (stereo not drawn) [Example 86, 4-[(cyclopropylmethoxy)-methyl]-N-(6-methylpyridin-2-yl)azepane-1-sulfonamide]

Row | Structure (SMILES) | inhibition at 0.1 µM (11β-hsd-1 enzyme [1]) | Ki (11β-hsd-1 enzyme [2]) | inhibition at 0.1 µM (11β-hsd-1 enzyme [1]; Table 1, inhibitor 0.1 μM) | inhibition (11β-hsd-1 enzyme [1])
33 | CCN(CC)C(=O)Cc1cccc(NS(=O)(=O)N2CCc3ccccc3CC2)n1 [Example 17, N,N-diethyl-2-{6-[(1,2,4,5-tetrahydro-3H-3-benzazepin-3-ylsulfonyl)amino]pyridin-2-yl}acetamide] | 100% | 5.7 nM |  | 
